In ChEMBL document CHEMBL4507272 (2021):

Experiments:
[1] = tested on: Serine/threonine-protein kinase B-raf (Homo sapiens), P15056 [V600E]; conditions: Compound concentration 1000.0 nM
[2] = molecular target: Calcium/calmodulin-dependent protein kinase type II subunit alpha (Homo sapiens) (UniProt Q9UQM7); conditions: Compound concentration 1000.0 nM
[3] = molecular target: Cyclin-dependent kinase-like 2 (Homo sapiens) (UniProt Q92772); conditions: Compound concentration 1000.0 nM
[4] = molecular target: Cyclin-dependent kinase-like 3 (Homo sapiens) (UniProt Q8IVW4); conditions: Compound concentration 1000.0 nM
[5] = molecular target: Macrophage colony-stimulating factor 1 receptor (Homo sapiens) (UniProt P07333); conditions: Compound concentration 1000.0 nM
[6] = molecular target: Death-associated protein kinase 3 (Homo sapiens) (UniProt O43293); conditions: Compound concentration 1000.0 nM
[7] = molecular target: Mitogen-activated protein kinase kinase kinase 12 (Homo sapiens) (UniProt Q12852); conditions: Compound concentration 1000.0 nM
[8] = molecular target: Serine/threonine-protein kinase 17B (Homo sapiens) (UniProt O94768); conditions: Compound concentration 1000.0 nM
[9] = molecular target: Epidermal growth factor receptor (Homo sapiens) (UniProt P00533); conditions: Compound concentration 1000.0 nM
[10] = tested on: Epidermal growth factor receptor (Homo sapiens), P00533 [UNDEFINED MUTATION]; conditions: Compound concentration 1000.0 nM
[11] = molecular target: Ephrin type-B receptor 3 (Homo sapiens) (UniProt P54753); conditions: Compound concentration 1000.0 nM
[12] = molecular target: Mitogen-activated protein kinase 3 (Homo sapiens) (UniProt P27361); conditions: Compound concentration 1000.0 nM
[13] = molecular target: Rhodopsin kinase GRK1 (Homo sapiens) (UniProt Q15835); conditions: Compound concentration 1000.0 nM
[14] = molecular target: Beta-adrenergic receptor kinase 1 (Homo sapiens) (UniProt P25098); conditions: Compound concentration 1000.0 nM
[15] = molecular target: G protein-coupled receptor kinase 3 (Homo sapiens) (UniProt P35626); conditions: Compound concentration 1000.0 nM
[16] = molecular target: Hormonally up-regulated neu tumor-associated kinase (Homo sapiens) (UniProt P57058); conditions: Compound concentration 1000.0 nM
[17] = molecular target: Mitogen-activated protein kinase 8 (Homo sapiens) (UniProt P45983); conditions: Compound concentration 1000.0 nM
[18] = molecular target: Tyrosine-protein kinase Lck (Homo sapiens) (UniProt P06239); conditions: Compound concentration 1000.0 nM
[19] = molecular target: Leukocyte tyrosine kinase receptor (Homo sapiens) (UniProt P29376); conditions: Compound concentration 1000.0 nM
[20] = tested on: Hepatocyte growth factor receptor (Homo sapiens), P08581 [M1250T]; conditions: Compound concentration 1000.0 nM
[21] = molecular target: MAP kinase-interacting serine/threonine-protein kinase 1 (Homo sapiens) (UniProt Q9BUB5); conditions: Compound concentration 1000.0 nM
[22] = molecular target: Mitogen-activated protein kinase kinase kinase 10 (Homo sapiens) (UniProt Q02779); conditions: Compound concentration 1000.0 nM
[23] = molecular target: Mitogen-activated protein kinase kinase kinase 11 (Homo sapiens) (UniProt Q16584); conditions: Compound concentration 1000.0 nM
[24] = molecular target: Serine/threonine-protein kinase 26 (Homo sapiens) (UniProt Q9P289); conditions: Compound concentration 1000.0 nM
[25] = molecular target: Serine/threonine-protein kinase 38 (Homo sapiens) (UniProt Q15208); conditions: Compound concentration 1000.0 nM
[26] = molecular target: Serine/threonine-protein kinase Nek4 (Homo sapiens) (UniProt P51957); conditions: Compound concentration 1000.0 nM
[27] = molecular target: Serine/threonine-protein kinase NLK (Homo sapiens) (UniProt Q9UBE8); conditions: Compound concentration 1000.0 nM
[28] = molecular target: Serine/threonine-protein kinase PAK 1 (Homo sapiens) (UniProt Q13153); conditions: Compound concentration 1000.0 nM
[29] = molecular target: Phosphatidylinositol 4,5-bisphosphate 3-kinase catalytic subunit gamma isoform (Homo sapiens) (UniProt P48736); conditions: Compound concentration 1000.0 nM
[30] = molecular target: Serine/threonine-protein kinase pim-3 (Homo sapiens) (UniProt Q86V86); conditions: Compound concentration 1000.0 nM
[31] = molecular target: Phosphatidylinositol 5-phosphate 4-kinase type-2 gamma (Homo sapiens) (UniProt Q8TBX8); conditions: Compound concentration 1000.0 nM
[32] = molecular target: RAF proto-oncogene serine/threonine-protein kinase (Homo sapiens) (UniProt P04049); conditions: Compound concentration 1000.0 nM
[33] = molecular target: Proto-oncogene tyrosine-protein kinase receptor Ret (Homo sapiens) (UniProt P07949); conditions: Compound concentration 1000.0 nM
[34] = molecular target: Serine/threonine-protein kinase RIO1 (Homo sapiens) (UniProt Q9BRS2); conditions: Compound concentration 1000.0 nM
[35] = molecular target: Receptor-interacting serine/threonine-protein kinase 4 (Homo sapiens) (UniProt P57078); conditions: Compound concentration 1000.0 nM
[36] = molecular target: Ribosomal protein S6 kinase alpha-1 (Homo sapiens) (UniProt Q15418); conditions: Compound concentration 1000.0 nM
[37] = molecular target: Serine/threonine-protein kinase Sgk3 (Homo sapiens) (UniProt Q96BR1); conditions: Compound concentration 1000.0 nM
[38] = molecular target: SRSF protein kinase 1 (Homo sapiens) (UniProt Q96SB4); conditions: Compound concentration 1000.0 nM
[39] = molecular target: Angiopoietin-1 receptor (Homo sapiens) (UniProt Q02763); conditions: Compound concentration 1000.0 nM
[40] = molecular target: Serine/threonine-protein kinase tousled-like 1 (Homo sapiens) (UniProt Q9UKI8); conditions: Compound concentration 1000.0 nM
[41] = molecular target: TRAF2 and NCK-interacting protein kinase (Homo sapiens) (UniProt Q9UKE5); conditions: Compound concentration 1000.0 nM
[42] = molecular target: D(4) dopamine receptor (Homo sapiens) (UniProt P21917); conditions: Compound concentration 10.0 uM
[43] = molecular target: Mu-type opioid receptor (Homo sapiens) (UniProt P35372); conditions: Compound concentration 10.0 uM
[44] = molecular target: Delta-type opioid receptor (Homo sapiens) (UniProt P41143); conditions: Compound concentration 10.0 uM
[45] = molecular target: Muscarinic acetylcholine receptor M1 (Homo sapiens) (UniProt P11229); conditions: Compound concentration 10.0 uM

Epidermal growth factor receptor (Homo sapiens), sequence (P00533 whole entry): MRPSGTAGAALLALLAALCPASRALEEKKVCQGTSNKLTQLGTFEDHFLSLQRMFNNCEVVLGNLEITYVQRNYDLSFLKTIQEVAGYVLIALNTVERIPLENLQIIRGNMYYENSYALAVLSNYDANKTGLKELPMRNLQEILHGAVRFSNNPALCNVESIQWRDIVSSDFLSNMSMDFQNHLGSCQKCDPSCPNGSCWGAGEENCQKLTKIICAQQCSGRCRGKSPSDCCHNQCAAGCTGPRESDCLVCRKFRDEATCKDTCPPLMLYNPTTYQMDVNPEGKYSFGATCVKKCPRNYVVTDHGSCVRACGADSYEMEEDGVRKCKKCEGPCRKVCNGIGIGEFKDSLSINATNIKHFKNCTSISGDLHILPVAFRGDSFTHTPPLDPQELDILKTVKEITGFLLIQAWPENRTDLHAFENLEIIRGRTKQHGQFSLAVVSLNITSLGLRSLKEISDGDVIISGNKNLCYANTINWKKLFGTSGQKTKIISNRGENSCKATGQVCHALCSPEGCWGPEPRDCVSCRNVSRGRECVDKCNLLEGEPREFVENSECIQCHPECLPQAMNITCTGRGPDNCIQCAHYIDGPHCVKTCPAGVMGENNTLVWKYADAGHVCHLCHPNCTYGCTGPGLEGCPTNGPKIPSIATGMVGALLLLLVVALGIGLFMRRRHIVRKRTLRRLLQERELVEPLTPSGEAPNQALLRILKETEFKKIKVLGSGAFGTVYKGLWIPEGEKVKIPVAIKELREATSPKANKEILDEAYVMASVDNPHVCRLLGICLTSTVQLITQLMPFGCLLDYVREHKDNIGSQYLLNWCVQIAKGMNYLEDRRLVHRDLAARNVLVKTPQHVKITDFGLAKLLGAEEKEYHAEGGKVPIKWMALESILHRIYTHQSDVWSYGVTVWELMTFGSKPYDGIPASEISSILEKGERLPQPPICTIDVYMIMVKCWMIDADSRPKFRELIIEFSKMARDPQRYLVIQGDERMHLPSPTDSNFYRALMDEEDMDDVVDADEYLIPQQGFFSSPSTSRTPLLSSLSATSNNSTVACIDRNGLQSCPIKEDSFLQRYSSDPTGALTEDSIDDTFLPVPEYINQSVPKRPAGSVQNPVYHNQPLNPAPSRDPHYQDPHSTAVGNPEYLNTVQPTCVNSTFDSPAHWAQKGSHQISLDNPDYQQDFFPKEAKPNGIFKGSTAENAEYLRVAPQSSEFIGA
Epidermal growth factor receptor (Homo sapiens), P00533 [UNDEFINED MUTATION], sequence (P00533 whole entry, looked up, change not shown): as the sequence (P00533 whole entry) above
Phosphatidylinositol 5-phosphate 4-kinase type-2 gamma (Homo sapiens), sequence (Q8TBX8 whole entry): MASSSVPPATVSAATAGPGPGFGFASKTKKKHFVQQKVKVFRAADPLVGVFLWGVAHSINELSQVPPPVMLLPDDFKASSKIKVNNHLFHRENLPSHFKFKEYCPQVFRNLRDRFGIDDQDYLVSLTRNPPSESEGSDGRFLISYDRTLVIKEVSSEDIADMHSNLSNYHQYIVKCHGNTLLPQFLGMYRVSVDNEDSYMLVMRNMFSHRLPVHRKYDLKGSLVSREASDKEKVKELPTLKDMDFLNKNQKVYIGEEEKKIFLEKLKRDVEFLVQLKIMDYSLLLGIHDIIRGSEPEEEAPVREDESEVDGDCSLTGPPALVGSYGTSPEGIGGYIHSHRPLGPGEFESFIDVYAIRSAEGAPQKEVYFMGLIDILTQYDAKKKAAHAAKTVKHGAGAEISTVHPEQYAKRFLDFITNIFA
Calcium/calmodulin-dependent protein kinase type II subunit alpha (Homo sapiens), sequence (Q9UQM7 whole entry): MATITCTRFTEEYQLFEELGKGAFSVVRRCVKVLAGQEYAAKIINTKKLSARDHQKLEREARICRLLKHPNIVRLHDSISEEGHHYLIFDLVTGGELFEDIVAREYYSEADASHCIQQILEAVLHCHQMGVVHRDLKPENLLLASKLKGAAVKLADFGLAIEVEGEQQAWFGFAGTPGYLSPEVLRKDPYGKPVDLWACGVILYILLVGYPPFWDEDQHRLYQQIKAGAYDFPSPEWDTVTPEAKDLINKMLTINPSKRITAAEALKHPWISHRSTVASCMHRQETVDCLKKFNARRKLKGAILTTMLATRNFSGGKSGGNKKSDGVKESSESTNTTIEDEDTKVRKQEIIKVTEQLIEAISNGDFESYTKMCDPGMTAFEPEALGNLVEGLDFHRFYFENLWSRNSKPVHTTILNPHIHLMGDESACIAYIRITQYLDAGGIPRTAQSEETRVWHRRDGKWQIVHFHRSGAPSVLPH
Mitogen-activated protein kinase 3 (Homo sapiens), sequence (P27361 whole entry): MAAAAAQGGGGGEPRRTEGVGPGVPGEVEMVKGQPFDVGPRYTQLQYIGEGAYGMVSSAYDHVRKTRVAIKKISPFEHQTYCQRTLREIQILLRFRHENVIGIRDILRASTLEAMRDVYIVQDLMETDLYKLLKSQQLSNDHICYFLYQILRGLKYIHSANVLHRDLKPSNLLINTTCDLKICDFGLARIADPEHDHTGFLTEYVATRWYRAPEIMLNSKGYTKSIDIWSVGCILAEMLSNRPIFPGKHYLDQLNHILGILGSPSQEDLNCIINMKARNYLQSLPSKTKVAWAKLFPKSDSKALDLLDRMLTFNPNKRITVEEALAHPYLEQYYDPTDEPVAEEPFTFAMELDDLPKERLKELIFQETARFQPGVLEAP
Mu-type opioid receptor (Homo sapiens), sequence (P35372 whole entry): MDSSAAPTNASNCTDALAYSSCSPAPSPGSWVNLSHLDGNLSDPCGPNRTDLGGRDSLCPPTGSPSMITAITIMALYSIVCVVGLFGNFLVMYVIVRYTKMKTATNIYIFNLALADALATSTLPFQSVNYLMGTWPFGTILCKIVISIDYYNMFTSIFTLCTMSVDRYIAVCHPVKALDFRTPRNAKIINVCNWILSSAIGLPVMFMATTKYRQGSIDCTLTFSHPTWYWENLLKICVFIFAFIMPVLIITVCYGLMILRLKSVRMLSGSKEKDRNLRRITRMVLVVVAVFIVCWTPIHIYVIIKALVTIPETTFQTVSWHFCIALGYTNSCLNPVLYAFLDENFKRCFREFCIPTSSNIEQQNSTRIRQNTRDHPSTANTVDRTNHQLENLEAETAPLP
Cyclin-dependent kinase-like 2 (Homo sapiens), sequence (Q92772 whole entry): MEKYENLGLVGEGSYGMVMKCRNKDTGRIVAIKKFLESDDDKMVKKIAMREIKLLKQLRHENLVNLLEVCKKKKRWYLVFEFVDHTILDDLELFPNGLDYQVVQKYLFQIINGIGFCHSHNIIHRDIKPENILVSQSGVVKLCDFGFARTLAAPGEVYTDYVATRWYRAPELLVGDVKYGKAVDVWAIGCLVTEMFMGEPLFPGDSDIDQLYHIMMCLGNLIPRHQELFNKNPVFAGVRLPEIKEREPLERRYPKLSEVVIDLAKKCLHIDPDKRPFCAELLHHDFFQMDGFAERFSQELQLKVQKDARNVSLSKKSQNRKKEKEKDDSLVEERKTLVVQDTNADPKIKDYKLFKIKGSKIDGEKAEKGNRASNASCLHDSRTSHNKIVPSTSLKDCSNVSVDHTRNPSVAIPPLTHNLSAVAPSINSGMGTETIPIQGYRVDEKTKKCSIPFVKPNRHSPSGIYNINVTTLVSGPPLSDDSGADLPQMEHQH
Mitogen-activated protein kinase 8 (Homo sapiens), sequence (P45983 whole entry): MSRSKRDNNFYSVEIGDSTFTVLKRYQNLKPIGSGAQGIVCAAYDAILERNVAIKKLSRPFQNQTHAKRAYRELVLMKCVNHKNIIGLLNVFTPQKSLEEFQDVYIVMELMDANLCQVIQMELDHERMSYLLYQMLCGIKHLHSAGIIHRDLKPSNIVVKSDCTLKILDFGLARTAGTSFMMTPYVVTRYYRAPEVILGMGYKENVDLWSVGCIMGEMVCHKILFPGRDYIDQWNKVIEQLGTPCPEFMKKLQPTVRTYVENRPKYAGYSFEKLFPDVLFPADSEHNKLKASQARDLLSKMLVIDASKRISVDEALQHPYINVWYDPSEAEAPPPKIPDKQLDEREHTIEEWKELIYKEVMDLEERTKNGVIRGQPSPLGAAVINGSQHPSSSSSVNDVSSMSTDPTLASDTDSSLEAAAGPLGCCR

CC(=O)C1=C(C)N(c2cccc(C(F)(F)F)c2)C(=O)N[C@@H]1c1ccc(C#N)nc1 [BAY-678]
inactive: residual activity [1] 100% | residual activity [2] 92.5% | residual activity [3] 75.4% | residual activity [4] 98.5% | residual activity [5] 100% | residual activity [6] 83.8% | residual activity [7] 86.8% | residual activity [8] 100% | residual activity [9] 78.2% | residual activity [10] 92.9% | residual activity [11] 100% | residual activity [12] 97.1% | residual activity [13] 99.2% | residual activity [14] 89% | residual activity [15] 92.6% | residual activity [16] 80.1% | residual activity [17] 100% | residual activity [18] 100% | residual activity [19] 92.6% | residual activity [20] 100% | residual activity [21] 100% | residual activity [22] 92.1% | residual activity [23] 100% | residual activity [24] 100% | residual activity [25] 94.1% | residual activity [26] 93.9% | residual activity [27] 93% | residual activity [28] 91.2% | residual activity [29] 100% | residual activity [30] 100% | residual activity [31] 80.7% | residual activity [32] 100% | residual activity [33] 92.4% | residual activity [34] 87.5% | residual activity [35] 100% | residual activity [36] 91.5% | residual activity [37] 100% | residual activity [38] 67.5% | residual activity [39] 100% | residual activity [40] 85.3% | residual activity [41] 90.8% | inhibition [42] 15.9% | inhibition [43] -5.41% | inhibition [44] -6.02% | inhibition [45] -4.65%
